From BindingDB's records for doi:10.1021/jm00100a021 (University of Illinois, 1992)

Experiments:
[1] = molecular target: Urokinase-type plasminogen activator (Homo sapiens, UniProt P00749); assay: ChEBML_213149
Excerpt: […] rate constant against Urokinase-type plasminogen activator

Serine protease 1 = molecular target: T1, Serine protease 1 (Bos taurus, UniProt P00760); assay: ChEBML_212371
T1 sequence (P00760 whole entry): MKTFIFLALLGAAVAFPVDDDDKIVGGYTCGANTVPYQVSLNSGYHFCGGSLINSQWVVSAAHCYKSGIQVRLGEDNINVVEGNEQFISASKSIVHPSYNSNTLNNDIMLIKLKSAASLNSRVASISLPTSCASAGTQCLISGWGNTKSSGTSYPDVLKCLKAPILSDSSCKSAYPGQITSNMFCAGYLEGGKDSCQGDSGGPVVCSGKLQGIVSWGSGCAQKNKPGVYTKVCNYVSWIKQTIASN
Excerpt: […] rate constant against trypsin

Compound | koff [1] [s⁻¹] | koff (Serine protease 1) [s⁻¹]
C=C1CC(c2ccc(N=C(N)N)cc2)CC(=O)O1 (stereo not drawn) | 0.00015 | 3.3e-05
N=C(N)Nc1ccc(C2CC(=O)O/C(=C/I)C2)cc1 (stereo not drawn) | – | 0.000333
